Source: PubChem BioAssay (NCI)
Where “and” joins values, the source holds several entries; their conditions need not be identical. Identical values can stand only once.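 Growth conditions: 96-well plates. Treatment: test compound, 48 hours, 5 concentrations. Analysis: linear interpolation between bracketing concentrations; unreached endpoints set to highest concentration. GI50: concentration for 50% inhibition of growth. At the TGI there is no net growth.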 Where a SMILES comes first, the peptide text is derived from it. [ ]: non-standard residue; d: D form. 2Nal = N[CH](Cc1ccc2ccccc2c1)C(=O)O

Assays:
Test in all cases: NCI-60 cell line screen, 48 h
[1] = test system: HCT-116 colon
[2] = test system: BT-549 breast
[3] = test system: UO-31 renal
[4] = test system: MDA-MB-435
[5] = test system: A549 NSCLC
[6] = test system: SF-295 CNS
[7] = test system: A498 renal
[8] = test system: ACHN renal
[9] = test system: IGROV1 ovarian
[10] = test system: EKVX NSCLC

Row | SMILES | GI50 [1] | TGI [1] | GI50 [2] | TGI [2] | GI50 [3] | TGI [3] | GI50 [4] | TGI [4] | GI50 [5] | TGI [5] | GI50 [6] | TGI [6] | GI50 [7] | TGI [7] | GI50 [8] | TGI [8] | GI50 [9] | TGI [9] | TGI [10] | GI50 [10]
1 | C[C@]12CC[C@@H]3c4ccc(O)cc4CC[C@H]3[C@@H]1CC[C@@H]2NS(=O)(=O)c1cccc(Br)c1 | 3.03 µM | 10.2 µM | 3.05 µM | 10.3 µM | 2.03 µM | 8.72 µM | 2.69 µM | 9.21 µM | 3.11 µM | 13.1 µM | 3.19 µM | 11.7 µM | 1.8 µM | 8.45 µM | 2.91 µM | 8.61 µM | 4.04 µM | 16.5 µM | – | –
2 | CC(=O)Nc1ccc(/C=c2\sc3nnc(/C=C/c4ccccc4)n3c2=O)cc1 | – | > 50 µM | – | – | – | > 50 µM | – | – | – | > 50 µM | – | > 50 µM | – | > 50 µM | – | > 50 µM | – | > 50 µM | > 50 µM | –
3 | CC1CC2C3CC(F)C4=CC(=O)C=CC4(C)C3(F)C(O)CC2(C)C1(O)C(=O)CO (configuration not stated) | – | > 100 µM | – | – | – | > 100 µM | – | – | – | > 100 µM | – | > 100 µM | – | – | – | > 100 µM | – | > 100 µM | > 100 µM | –
4 | O=C1CCC(=O)c2cc(Br)ccc2N1 | – | > 55 µM | – | – | – | > 100 µM | – | – | – | > 100 µM | – | > 100 µM | – | > 100 µM | – | > 100 µM | – | > 100 µM | > 100 µM | –
5 | Cc1ccc(NC(=O)SCCC(=O)O)cc1NC(=O)SCCC(=O)O | – | > 100 µM | – | – | – | > 100 µM | – | – | – | > 100 µM | – | > 100 µM | – | > 100 µM | – | > 100 µM | – | > 100 µM | > 100 µM | –
6 | COc1cc2c(cc1OC)-c1c(cc(OC)c(OC)c1OC)C2=O | – | > 100 µM | – | – | – | > 100 µM | – | – | – | > 100 µM | – | > 100 µM | – | – | – | > 100 µM | – | > 100 µM | > 100 µM | –
7 | Oc1cccc(C2SCc3nc4ccccc4n32)c1 (configuration not stated) | – | > 100 µM | – | – | – | > 100 µM | – | – | – | > 100 µM | – | > 100 µM | – | > 100 µM | – | > 100 µM | – | – | > 100 µM | –
8 | O=C(O)/C(O)=C1/C=C(c2ccccc2)c2ccccc21 | – | 37.6 µM | – | – | – | 41.6 µM | – | – | – | 71.4 µM | – | 32.9 µM | – | 98.9 µM | – | 94.5 µM | – | 51.8 µM | – | –
9 | O=C(Nc1cc(C(F)(F)F)ccc1Cl)C(=O)C(C(=O)c1ccc2ccccc2c1)C1OC(=O)c2ccccc21 (configuration not stated) | – | 30.2 µM | – | – | – | 28.2 µM | – | – | – | > 100 µM | – | 27.6 µM | – | 20.8 µM | – | > 86.7 µM | – | > 92.5 µM | 34.8 µM | –
10 | CC1=CC(C)C(O)C(C)/C=C/C(O)C/C=C(/C)C(=O)CC(O)C(C)\C=C/C=C/C=C\C(=O)NC2=C(O)c3cc(C)c(O)c(c3C(=O)C2=O)C1=O (configuration not stated) | – | > 100 µM | – | > 100 µM | – | > 100 µM | – | > 100 µM | – | > 100 µM | – | > 100 µM | – | – | – | > 100 µM | – | > 100 µM | > 100 µM | –
11 | CNC(=O)OCc1nc(S(C)=O)n(C)c1COC(=O)NC (configuration not stated) | – | > 100 µM | – | – | – | > 100 µM | – | – | – | > 46.4 µM | – | > 100 µM | – | > 65.6 µM | – | > 78.6 µM | – | > 82.1 µM | > 100 µM | –
12 | COc1ccc2cc(C(=O)/C=C/c3ccc(OC)c(OC)c3)ccc2c1 | 2.69 µM | 10.3 µM | 21.1 µM | 68.7 µM | 23.3 µM | 49.3 µM | 5.59 µM | 43.4 µM | 4.29 µM | 30.3 µM | 35.6 µM | > 100 µM | – | – | 14.5 µM | 31.2 µM | 10.5 µM | 78.2 µM | 68.4 µM | 22 µM
13 | CSc1s[s+]c(SC)c1[O-] | – | 36.8 µM | – | – | – | > 100 µM | – | – | – | > 100 µM | – | > 100 µM | – | > 100 µM | – | > 100 µM | – | > 100 µM | > 100 µM | –
14 | N/C(=N\C(=S)N1CCCCC1)N1CCCCC1 | – | > 100 µM | – | – | – | > 100 µM | – | – | – | > 100 µM | – | > 100 µM | – | > 100 µM | – | > 100 µM | – | > 100 µM | > 100 µM | –
15 | COc1ccc(OC)c(-c2nc3sccn3c2/C=C2/C(=O)Nc3ccccc32)c1 | 0.142 µM | 1.52 µM | 0.335 µM | 3.13 µM | 1.1 µM | > 41 µM | 0.111 µM | 0.293 µM | 0.849 µM | > 60.2 µM | 0.248 µM | 0.635 µM | – | – | 0.61 µM | 15.9 µM | 2.1 µM | > 86.1 µM | 27.7 µM | 2.51 µM
16 | CC(NC(=O)C(N)Cc1ccccc1)C(=O)NC(Cc1ccc(O)cc1)C(=O)NC(Cc1c[nH]c2ccccc12)C(=O)NC(CCCCN)C(=O)NC(C(=O)NC(C)C(=O)NC(Cc1ccc2ccccc2c1)C(N)=O)C(C)C (configuration not stated) (H-FAYWKVA[2Nal]-NH2; configuration not given here) | 33.9 µM | > 100 µM | – | – | 27.1 µM | > 12.5 µM and 58.6 µM | – | > 12.5 µM | 20.7 µM | > 12.5 µM and 48.7 µM | – | > 12.5 µM | 19.4 µM | > 12.5 µM and 49.4 µM | 22.7 µM | > 12.5 µM and 52.1 µM | 24.1 µM | > 12.5 µM and 49 µM | > 12.5 µM and 81 µM | 25.9 µM
17 | O=C1OC(=O)C2C3CCC(O3)C12 (configuration not stated) | – | > 100 µM | – | – | – | > 100 µM | – | – | – | > 100 µM | – | > 100 µM | – | > 100 µM | – | > 100 µM | – | > 100 µM | > 100 µM | –
18 | C=C(CO)CC(O)c1ccccc1 (configuration not stated) | – | > 100 µM | – | – | – | > 100 µM | – | – | – | > 100 µM | – | > 100 µM | – | > 100 µM | – | > 100 µM | – | > 100 µM | > 100 µM | –
19 | COC1OC(C)C(OC(=O)C(C)(C)C)C(C)(O)C1O (configuration not stated) | – | > 100 µM | – | – | – | – | – | – | – | > 100 µM | – | > 100 µM | – | > 100 µM | – | – | – | > 100 µM | – | –
20 | O=C(C#Cc1c[nH]c(=O)[nH]c1=O)c1ccccc1 | – | 22 µM | – | – | – | 31.8 µM | – | – | – | 64.1 µM | – | > 100 µM | – | 29.1 µM | – | 29.6 µM | – | 32.5 µM | 24.9 µM | –
21 | CN(C)CC1(C)CC/C(=C\c2ccc3c(c2)OCO3)C1=O (configuration not stated) | – | > 100 µM | – | – | – | > 100 µM | – | – | – | > 100 µM | – | > 100 µM | – | > 100 µM | – | > 100 µM | – | > 100 µM | – | –
22 | O=C(N/N=C/c1cc2ccccc2c2ccccc12)c1cc(O)c(O)c(O)c1 | 3.17 µM | 12.4 µM | 3.74 µM | 16.8 µM | 2.64 µM | 16.5 µM | 3.58 µM | 16.9 µM | 12.7 µM | 39.2 µM | 14.9 µM | 32.1 µM | 13.3 µM | 27 µM | 3.25 µM | 12.6 µM | 4.14 µM | 20.5 µM | – | –
